We go through 17 molecules from patent US8211927B2, “5-phenyl-isoxazole-3-carboxamide derivatives as TRPV1 modulators” (MSD, Oss B.V., priority 2007, dated 2012).

In this test the target is T1, human VR1 (Homo sapiens, UniProt Q8NER1).
T1 construct: expressed in transfected cells
The experiment in a line: FLIPR Calcium 3 calcium flux assay (headed Vanilloid Receptor Binding Assay), antagonist activity against capsaicin. Format: cell-based. The conditions noted are these: Chinese hamster ovary cells expressing human VR1; for inhibition at 10 µM: 10 min, highest concentration of 10 μM, read-out: TRPV1 % Mean effect at 10 μM concentration; for EC50: antagonist activity vs 30 nM capsaicin, read-out: TRPV1 pEC50 (converted). The source says:
Methods to construct such recombinant cell lines are well known in the art (Sambrook et al., Molecular Cloning: a Laboratory Manual, Cold Spring Harbor Laboratory Press, Cold Spring Harbor, 2000). The compounds of the invention are thus useful in the treatment of TRPV1 mediated disorders, such as in the treatment of acute and chronic pain disorders, acute and chronic neuropathic pain, acute and chronic inflammatory pain, respiratory diseases and in lower urinary tract disorders.
Test compounds were prepared as stock solution in dimethylsulfoxide and tested for activity over several log units (ranging 100 μM-100 pM). Compounds were further diluted in assay buffer as necessary for IC50 determination.
Chinese hamster ovary cells expressing human VR1 were grown in DMEM/F12 50/50 Mix (Mediatech, Inc., Herndon, Va., USA), supplemented with 10% FetalClone II (Hyclone, Logan, Utah, USA), 1% GlutaMax (Invitrogen Corp., Carlsbad, Calif., USA), 1% Pen/Strep (Mediatech) and 0.4 mg/ml G418 (Mediatech). The day before the assay, cells were seeded into 384-well tissue culture-treated black plates with clear bottoms (Corning, Inc., Corning, N.Y., USA), at 10,000 viable cells/well in 50 μl/well of medium containing no G418.
On the day of the assay, which is the FLIPR® Calcium 3 Assay commercially available from Molecular Devices Corp., Sunnyvale, Calif. USA, the plating medium was removed and replaced with 25 μl/well 1× Calcium 3 Assay kit dye, prepared in VR1 Buffer (160 mM NaCl, 4.5 mM KCl, 10 mM HEPES, 10 mM Glucose, 2 mM CaCl2, 1 mM MgCl2 and 0.5 mM Probenecid). After 1 hour incubation at room temperature, the plates were loaded into the FLIPR (Molecular Devices, Corp.), which adds 12.5 μl of test compound in VR1 Buffer containing 4% dimethylsulfoxide and reads the subsequent change in the fluorescence of the cells to monitor agonist activity. Ten minutes after compound addition, the plates were reloaded into the FLIPR, which adds 12.5 μl of 30 nM capsaicin in VR1 Buffer and reads the subsequent change in the fluorescence of the cells to monitor antagonist activity. In this way, the same assay was used to assess both the agonist activity and antagonist activity of test compounds.
(Calcium flux is commonly read through the fluorescence of an indicator in the cells.)

T1 sequence (Q8NER1 whole entry): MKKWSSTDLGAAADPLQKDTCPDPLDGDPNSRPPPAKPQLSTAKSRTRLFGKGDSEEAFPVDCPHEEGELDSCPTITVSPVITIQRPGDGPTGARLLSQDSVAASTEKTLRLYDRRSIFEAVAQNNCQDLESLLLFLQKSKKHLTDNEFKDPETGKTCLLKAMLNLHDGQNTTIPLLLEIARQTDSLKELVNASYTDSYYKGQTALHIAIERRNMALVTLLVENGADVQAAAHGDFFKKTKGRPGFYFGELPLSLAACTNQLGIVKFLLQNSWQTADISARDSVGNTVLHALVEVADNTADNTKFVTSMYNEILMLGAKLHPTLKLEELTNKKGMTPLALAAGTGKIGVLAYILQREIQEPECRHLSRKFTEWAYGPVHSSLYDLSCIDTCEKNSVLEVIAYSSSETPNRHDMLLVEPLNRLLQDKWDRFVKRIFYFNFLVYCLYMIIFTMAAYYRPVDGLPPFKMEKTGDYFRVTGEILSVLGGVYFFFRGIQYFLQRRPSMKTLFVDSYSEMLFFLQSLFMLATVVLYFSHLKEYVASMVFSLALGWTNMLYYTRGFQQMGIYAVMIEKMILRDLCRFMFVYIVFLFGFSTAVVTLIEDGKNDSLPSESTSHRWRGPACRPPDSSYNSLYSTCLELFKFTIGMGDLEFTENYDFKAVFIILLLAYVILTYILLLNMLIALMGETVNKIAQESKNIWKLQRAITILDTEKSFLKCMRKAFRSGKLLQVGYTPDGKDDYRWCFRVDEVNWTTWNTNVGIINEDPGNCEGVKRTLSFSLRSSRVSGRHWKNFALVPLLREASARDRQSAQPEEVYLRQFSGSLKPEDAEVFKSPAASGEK

Consider `O=C(NC1CCCC1)c1noc(-c2ccc(C(F)(F)F)cc2)c1F`, for which the inhibition at 10 µM was determined as 96% and the EC50 is 31.6 nM. For `O=C(NC1CCCC1)c1noc(-c2ccc(C(F)(F)F)cc2)c1Br`, in that order: 67% and 10 nM. For `Cc1c(C(=O)NC2CCCC2)noc1-c1ccc(C(F)(F)F)cc1`, the inhibition at 10 µM is 101% and the EC50 is 39.8 nM. For `CCCc1c(C(=O)CC2CCCC2)noc1-c1ccc(C(F)(F)F)cc1`, in that order: 98% and 100 nM. For `O=C(NC1CCOCC1)c1noc(-c2ccc(C(F)(F)F)cc2)c1Cl`, in that order: 89% and 31.6 nM.

In the case of `O=C(NC1CCCC1)c1noc(-c2ccc(F)cc2)c1Cl`, the inhibition at 10 µM stood at 98% and the EC50 is 100 nM. In the same order, the values of `O=C(NC1CCCCC1)c1noc(-c2ccc(Cl)cc2)c1Cl` are 88% and 63.1 nM. For `O=C(Nc1cccc(CO)c1)c1noc(-c2ccc(C(F)(F)F)c(F)c2)c1Cl`, in that order: 103% and 31.6 nM. For `Cc1c(C(=O)NC2CCOCC2)noc1-c1ccc(C(F)(F)F)c(F)c1`, in that order: 99% and 12.6 nM.

As to `CC[C@H](CO)NC(=O)c1noc(-c2ccc(C(F)(F)F)c(F)c2)c1C`, the inhibition at 10 µM amounted to 99% and the EC50 is 63.1 nM. In the same order, the values of `Cc1c(C(=O)N[C@@H](C)C(C)C)noc1-c1ccc(C(F)(F)F)c(F)c1` are 103% and 100 nM. For `O=C(NC1CCCC1)c1noc(-c2ccc(C(F)(F)F)cc2)c1Cl`, the inhibition at 10 µM came out at 90% and the EC50 is 3.98 nM. For `O=C(NC1CCCC1)c1noc(-c2ccc(Cl)cc2)c1Cl`, in that order: 102% and 15.8 nM. In the same order, the values of `CCCC(C)NC(=O)c1noc(-c2ccc(Cl)cc2)c1Cl` (centres unmarked) are 89% and 158 nM. For `O=C(NC1CCCC1)c1cc(-c2ccc(C(F)(F)F)cc2)on1`, in that order: 97% and 501 nM. With `O=C(NC1CCCC1)c1cc(-c2ccc(Cl)cc2)on1`, the inhibition at 10 µM worked out at 17%. In the case of `CCCC(C)NC(=O)c1cc(-c2ccc(Cl)cc2)on1` (centres unmarked), the inhibition at 10 µM was 50%.
